The values below come from patent US20040242579A1, “Triazine derivatives and their use as sunscreens” (priority 2001, published 2004).

A short description of this data set: UV absorption (λmax, molar extinction ε, extinction value E 1%, 1 cm) of the triazine UV filters. Type of data set: physicochemical.
Where [1] appears, read: at λmax 320 nm, solvent not stated.
Where [2] appears, read: second band at 224 nm, solvent not stated.

On to `CC1(C)CC(=O)C(=CNc2nc(NC=C3C(=O)CC(C)(C)CC3=O)nc(-c3ccccc3)n2)C(=O)C1` [Example 1], for which, under setting [1], the “E (=extinction value) (1%, 1 cm)” value was determined as 1045 and the ε turned out to be 51000 L/mol/cm. The compound also registered a λmax (main band, solvent not stated) of 320 nm. In addition, under setting [2], the “E (1%, 1 cm)” value stood at 732 and the ε came to 35700 L/mol/cm. This compound had a γmax (second band, solvent not stated) of 224 nm.

As for `CC(=O)C(=CNc1nc(NC=C(C(C)=O)C(C)=O)nc(-c2ccccc2)n1)C(C)=O` [Example 2], for the setting “at λmax, in ethanol”, the “E (1%, 1 cm)” value was found to be 1053 and the ε was determined as 42900 L/mol/cm. The compound also registered a λmax (in ethanol) of 322 nm.

For the compound `CC1(C)OC(=O)C(=CNc2nc(NC=C3C(=O)OC(C)(C)OC3=O)nc(-c3ccccc3)n2)C(=O)O1` [Example 3], under “at λmax, in dioxane”, the “E (1%, 1 cm)” value stood at 1374 and the ε amounted to 68000 L/mol/cm. This compound also returned a λmax (in dioxane) of 332 nm.

On to `CCOC(=O)/C(=C\Nc1nc(N/C=C(\C(C)=O)C(=O)OCC)nc(-c2ccccc2)n1)C(C)=O` [Example 4], for which, under “at λmax, in ethanol”, the “E (1%, 1 cm)” value is recorded as 983 and the ε turned out to be 46000 L/mol/cm. Further, the λmax (in ethanol) is on record as 319 nm.

`CCOC(=O)/C(=C\Nc1nc(N/C=C(\C(C)=O)C(=O)OCC)nc(N/C=C(\C(C)=O)C(=O)OCC)n1)C(C)=O` [Example 5]: for the setting “at λmax, in dioxane”, the “E (1%, 1 cm)” value was 1350. This compound yielded a λmax (in dioxane) of 325 nm.

`CC1(C)OC(=O)C(=CNc2nc(NC=C3C(=O)OC(C)(C)OC3=O)nc(NC=C3C(=O)OC(C)(C)OC3=O)n2)C(=O)O1` [Example 6]: under “at λmax, in dioxane”, the “E (1%, 1 cm)” value is on record as 1053 and the ε is recorded as 61 956. This compound also came in with a λmax (in dioxane) of 326 nm.
